Results as given in patent US5977373A, “Thiadiazolyl and oxadiazolyl phenyl oxazolidinone antibacterial agents” (Pharmacia & Upjohn Company, priority 1998, dated 1999).
Converted amounts (≈) assume the structure as drawn.

How the values were obtained:
Format in all cases: cell-based
HI 30063 = assay: MIC for a gram negative bacterial strain (Table 2); conditions: gram negative bacterial strain HI 30063
S. Aureus UC ® 9213 = assay: In vitro minimum inhibitory concentration (MIC) by agar dilution, gram-positive bacteria (Table 1); conditions: Staphylococcus aureus, UC9213
Excerpt: (§1) The oxazolidinone antibacterial agents of this invention have useful activity against a variety of microorganisms. The in vitro activity of compounds of this invention can be assessed by standard testing procedures such as the determination of minimum inhibitory concentration (MIC) by agar dilution as described in "Methods for Dilution Antimicrobial Susceptibility Tests for Bacteria That Grow Aerobically" (MFT) published January 1983 by the National Committee for Clinical Laboratory Standards, 771 East Lancaster Avenue, Villanova, Pa. 19084, USA. The activity of selected compounds of this invention against Staphylococcus aureus and Streptococcus pneumoniae are shown in Table 1.

S. pneumoniae UC ® 9912 = assay: as above; conditions: Streptococcus pneumoniae, UC9912
Excerpt: as §1

SMILES	MIC (HI 30063) [µg/mL]	MIC (S. Aureus UC ® 9213) [µg/mL]	MIC (S. pneumoniae UC ® 9912) [µg/mL]
CC(=O)NC[C@H]1CN(c2ccc(-c3nnc(CC#N)s3)c(F)c2)C(=O)O1 [Example 13, (S)-N-[[3-[4-[5-(Cyanomethyl)-1,3,4-thiadiazol-2-yl]-3-fluorophenyl]-2-oxo-5-oxazolidinyl]methyl]acetamide]	4 (≈ 10.7 µM)	2 (≈ 5.33 µM)	0.25 (≈ 0.666 µM)
CC(=S)NC[C@H]1CN(c2ccc(-c3nncs3)c(F)c2)C(=O)O1 [Example 74, (S)-N-[[3-[3-Fluoro-4-(1,3,4-thiadiazol-2-yl)phenyl]-2-oxo-5-oxazolidinyl]methyl]ethanethioamide]	1 (≈ 2.84 µM)	0.25 (≈ 0.709 µM)	< 0.125
CC(=O)NC[C@H]1CN(c2ccc(-c3nnc(CO)s3)c(F)c2)C(=O)O1 [Example 11, (S)-N-[[3-[3-Fluoro-4-(5-hydroxymethyl-1,3,4-thiadiazol-2-yl)phenyl]-2-oxo-5-oxazolidinyl]methyl]acetamide]	4 (≈ 10.9 µM)	1 (≈ 2.73 µM)	< 0.125
CC(=O)NC[C@H]1CN(c2ccc(-c3nnc(CC[N+](=O)[O-])s3)c(F)c2)C(=O)O1 [Example 53, (S)-N-[[3-[3-Fluoro-4-[5-(2-nitroethyl)-1,3,4-thiadiazol-2-yl]phenyl]-2-oxo-5-oxazolidinyl]methyl]acetamide]	4 (≈ 9.77 µM)	1 (≈ 2.44 µM)	0.25 (≈ 0.611 µM)
CC(=O)NC[C@H]1CN(c2ccc(-c3nnc(CCC#N)s3)c(F)c2)C(=O)O1 [Example 20, (S)-N-[[3-[4-[5-(2-Cyanoethyl)-1,3,4-thiadiazol-2-yl]-3-fluorophenyl]-2-oxo-5-oxazolidinyl]methyl]acetamide]	2 (≈ 5.14 µM)	0.5 (≈ 1.28 µM)	< 0.125
CCC(=O)NC[C@H]1CN(c2ccc(-c3nncs3)c(F)c2)C(=O)O1 [Example 71, (S)-N-[[3-[3-Fluoro-4-(1,3,4-thiadiazol-2-yl)phenyl]-2-oxo-5-oxazolidinyl]methyl]propanamide]	4 (≈ 11.4 µM)	1 (≈ 2.85 µM)	0.25 (≈ 0.714 µM)
CCC(=O)NC[C@H]1CN(c2ccc(-c3nnc(C)s3)c(F)c2)C(=O)O1 [Example 32, (S)-N-[[3-[3-Fluoro-4-(5-methyl-1,3,4-thiadiazol-2-yl)phenyl]-2-oxo-5-oxazolidinyl]methyl]propanamide]	4 (≈ 11 µM)	1 (≈ 2.74 µM)	< 0.125
CC(=O)NC[C@H]1CN(c2ccc(-c3nnc(CCO)s3)c(F)c2)C(=O)O1 [Example 26, (S)-N-[[3-[3-Fluoro-4-[5-(2-hydroxyethyl)-1,3,4-thiadiazol-2-yl]phenyl]-2-oxo-5-oxazolidinyl]methyl]acetamide]	2 (≈ 5.26 µM)	2 (≈ 5.26 µM)	< 0.125
CC(=O)CCc1nnc(-c2ccc(N3C[C@H](CNC(C)=O)OC3=O)cc2F)s1 [Example 16, (S)-N-[[3-[3-Fluoro-4-[5-(3-oxobutyl)-1,3,4-thiadiazol-2-yl]phenyl]-2-oxo-5-oxazolidinyl]methyl]acetamide]	4 (≈ 9.84 µM)	1 (≈ 2.46 µM)	< 0.125
CC(=O)NC[C@H]1CN(c2ccc(-c3nnc(CCS(C)(=O)=O)s3)c(F)c2)C(=O)O1 [Example 70, (S)-N-[[3-[3-Fluoro-4-[5-[2-(methylsulfonyl)ethyl]-1,3,4-thiadiazol-2-yl]phenyl]-2-oxo-5-oxazolidinyl]methyl]acetamide]	4 (≈ 9.04 µM)	4 (≈ 9.04 µM)	< 0.5
CC(=O)NC[C@H]1CN(c2ccc(-c3nnc(CCC[N+](=O)[O-])s3)c(F)c2)C(=O)O1 [Example 54, (S)-N-[[3-[3-Fluoro-4-[5-(3-nitropropyl)-1,3,4-thiadiazol-2-yl]phenyl]-2-oxo-5-oxazolidinyl]methyl]acetamide]	4 (≈ 9.45 µM)	2 (≈ 4.72 µM)	0.25 (≈ 0.59 µM)
CC(=O)NC[C@H]1CN(c2ccc(-c3nnc(CNS(C)(=O)=O)s3)c(F)c2)C(=O)O1 [Example 7, (S)-N-[[3-[3-Fluoro-4-[5-[[(methylsulfonyl)amino]methyl]-1,3,4-thiadiazol-2-yl]phenyl]-2-oxo-5-oxazolidinyl]methyl]acetamide]	2 (≈ 4.51 µM)	4 (≈ 9.02 µM)	< 0.125
CC(=O)NC[C@H]1CN(c2ccc(-c3nnc([C@H](C)N)s3)c(F)c2)C(=O)O1 [Example 55, [S-(R*,R*)]-N-[[3-[4-[5-(1-Aminoethyl)-1,3,4-thiadiazol-2-yl]-3-fluorophenyl]-2-oxo-5-oxazolidinyl]methyl]acetamide]	4 (≈ 10.5 µM)	8 (≈ 21.1 µM)	< 0.125
CC(=O)NC[C@H]1CN(c2ccc(-c3nnc(CF)s3)c(F)c2)C(=O)O1 [Example 8, (S)-N-[[3-[3-Fluoro-4-(5-fluoromethyl-1,3,4-thiadiazol-2-yl)phenyl]-2-oxo-5-oxazolidinyl]methyl]acetamide]	4 (≈ 10.9 µM)	1 (≈ 2.71 µM)	0.25 (≈ 0.679 µM)
CC(=O)NC[C@H]1CN(c2ccc(-c3nncs3)c(F)c2)C(=O)O1 [Example 9, (S)-N-[[3-[3-Fluoro-4-(1,3,4-thiadiazol-2-yl)phenyl]-2-oxo-5-oxazolidinyl]methyl]acetamide]	4 (≈ 11.9 µM)	1 (≈ 2.97 µM)	0.25 (≈ 0.743 µM)
CC(=O)NC[C@H]1CN(c2ccc(-c3nnc(CCC(C)=NO)s3)c(F)c2)C(=O)O1 [Example 63, (S)-N-[[3-[3-Fluoro-4-[5-[3-(hydroxyimino)butyl]-1,3,4-thiadiazol-2-yl]phenyl]-2-oxo-5-oxazolidinyl]methyl]acetamide]	4 (≈ 9.49 µM)	2 (≈ 4.75 µM)	< 0.125
CCC(=S)NC[C@H]1CN(c2ccc(-c3nncs3)c(F)c2)C(=O)O1 [Example 76, (S)-N-[[3-[3-Fluoro-4-(1,3,4-thiadiazol-2-yl)phenyl]-2-oxo-5-oxazolidinyl]methyl]propanethioamide]	1 (≈ 2.73 µM)	0.25 (≈ 0.682 µM)	< 0.125
